This note sets out measurements from patent US11207320B2, “Compositions and methods for cancer expressing PDE3A or SLFN12” (The Broad Institute, Inc., priority 2015, dated 2021).

The subject of assay [1] is HeLa cells. Description: DNMDP cytotoxicity after targeting PDE3A locus using CRISPR. The assay is classed as cell-based. The following applies: HeLa infected with Cas9 and sgRNAs against PDE3A. How it is done: FIG. 11A is a Western blot. HeLa cells were infected with Cas9 and indicated guide RNAs (sgRNA) against PDE3A. Western blots were probed for PDE3A at indicated time points. FIG. 11B is a bar graph showing percent rescue of HeLa cells that were infected with indicated sgRNAs for two weeks and treated with 1 μM of 6-(4-(diethylamino)-3-nitrophenyl)-5-methyl-4,5-dihydropyridazin-3(2H)-one (DNMDP) for 48 hours. Percent rescue was normalized to the Cas9-only control. FIG. 11C is a plot showing viability of cells infected with indicated sgRNAs and treated with various concentrations of 6-(4-(diethylamino)-3-nitrophenyl)-5-methyl-4,5-dihydropyridazin-3(2H)-one (DNMDP).
Based on the observations that DNMDP-sensitive cells expressed high levels of PDE3A, and that DNMDP competed with non-cytotoxic inhibitors for PDE3A binding, it was hypothesized that DNMDP mediated its cytotoxic phenotype through the interaction with PDE3A and that PDE3A abundance was a direct cellular determinant of DNMDP sensitivity. To validate this hypothesis, the effect of reducing levels of PDE3A on the response to DNMDP was tested. […] In an independent approach using an siRNA smart-pool containing four different siRNAs targeting PDE3A, PDE3A expression was reduced in HeLa cell line with a maximum efficiency of 70% between 24 and 72 hours after transfection. […]

Assay [2] concerns HeLa cells. The experiment in a line: PARP-cleavage immunoblotting. The class given is cell-based. The following applies: 36 hours. How it is done:
HeLa cells were treated with indicated concentration of DNMDP and staurosporine for 36 hours. HeLa cells were lysed and processed as described in Linker-affinity purification of molecular target of DNMDP and immunoblotting. Membranes were incubated with an antibody against PARP (1:1000, Cell Signaling #9532) and actin and subsequently imaged as described in Linker-affinity purification of molecular target of DNMDP and immunoblotting.

The target of assay [3] is T1, PDE3A (Homo sapiens, UniProt Q14432). The experiment in a line: Phosphodiesterase inhibition reactions (Caliper panel). The assay is classed as biochemical. Conditions: 100 nM. The method, then:
DNMDP concentration was 100 nM.

In the next assay the target is 234 kinases. The experiment in a line: Screening of 234 kinases. The assay is classed as biochemical. Conditions: 10 μM.
For assay [4], the system named is A549 cells. The experiment in a line: Sensitization of DNMDP-resistant cell line by expression of SLFN12 or SLFN12 and PDE3A. The assay is classed as cell-based. Conditions: A549 expressing SLFN12. The source says:
FIG. 22 is a plot showing sensitization of a DNMDP-resistant cell line by expression of SLFN12 or expression of SFLN12 and PDE3A.
Adding PDE3A expression led to further sensitization.

A further assay deals with NCI-H1734 cells. The experiment in a line: Compound library screening and dose-response retest, cell viability (ATP content, CellTiter-Glo). The assay is classed as cell-based. The following applies: NCI-H1734, 48 hours. The method, then: (§1) To identify anti-cancer compounds with cell-selective cytotoxic activity, an unbiased chemical screen was performed in two lung adenocarcinoma cell lines, A549 and NCI-H1734, both of which harbor oncogenic KRAS mutations and truncating STK11 mutations, and which were TP53 wild type and mutant (R273L), respectively. 1,924 compounds were screened from the Molecular Libraries Small-Molecule Repository validation set in the A549 and NCI-H1734 cell lines at a single concentration of 10 μM in 384-well format in duplicate. As a proxy for cellular viability, ATP content was measured after 48 hours of compound treatment.
(§2) 1500 NCI-H1734 or 1000 A549 cells were plated in a 384-well plate in 40 μl of RPMI supplemented with 10% Fetal Bovine Serum and 1% Pen/Strep. 24 hours after plating, a compound-library of 1924 small molecules was added at a concentration of 10 μM. Staurosporine was used a positive control for cytotoxicity at a concentration of 10 μM, and DMSO was used a negative control at a concentration of 1%. All compounds were incubated for 48 hours with indicated small molecules. […] Cell viability was assessed by adding 40 μl of a 25% CELLTITERGLO® (Promega) in PBS with a THERMO COMBI™ or multichannel-pipette and incubated for 10 minutes. The luminescence signal was read using a Perkin-Elmer EnVision. Viability percentage was calculated by normalizing to DMSO controls.

For assay [5], the system named is A549 cells. The description is as above. Conditions: A549, 48 hours. The class given is cell-based. How it is done: as §1, §2
Assay [6] has as its target T1, PDE3A. Description: Linker-affinity purification of molecular target of DNMDP and immunoblotting. Conditions: HeLa cell lysate, competitor 10 μM, immunoblot for PDE3A. Set-up: Immunoprecipitation of endogenous PDE3A in HeLa cells; endogenous in cells; host or cells: HeLa. The assay is classed as binding. How it is done:
To identify the molecular target of DNMDP, an affinity purification was performed using an (R)-des-nitro-DNMDP solid-phase tethered linker analogue (FIG. 10A) incubated with HeLa cell lysate. […] It was competed for the molecular target by adding either an excess of trequinsin or separate enantiomers of DNMDP, where only the (R)-enantiomer was cytotoxic. […] Binding of PDE3A to the linker analogue was blocked by both trequinsin and (R)-DNMDP, but not by the non-cytotoxic enantiomer (S)-[…]. 9C). Thus both trequinsin and (R)-DNMDP prevented the binding of PDE3A to the tethered DNMDP analogue, and it was concluded that both molecules bind PDE3A directly. HeLa cells were washed with ice-cold PBS before lysed with NP-40 lysis buffer (150 mM NaCl, 10% glycerol, 50 mM Tris-Cl pH 8.0, 50 mM MgCl2, 1% NP-40) supplemented with EDTA-free protease inhibitors (Roche) and phosphatase inhibitor mixtures I and II (Calbiochem). […] Samples were washed three times with lysis buffer containing corresponding compound concentrations of 10 μM. Proteins bound to Affi-Gel 102 resin were reduced, denatured, and separated using Tris-Glycine gels (Novex) and transferred to nitrocellulose membranes using the iBlot transfer system (Novex). Membranes were incubated overnight at 4° C. with primary antibodies against PDE3A (1:1000, Bethyl). […]

The structures appear in SMILES notation. Like-named read-outs stand apart in the source and are kept apart here.

T1 sequence (Q14432 whole entry): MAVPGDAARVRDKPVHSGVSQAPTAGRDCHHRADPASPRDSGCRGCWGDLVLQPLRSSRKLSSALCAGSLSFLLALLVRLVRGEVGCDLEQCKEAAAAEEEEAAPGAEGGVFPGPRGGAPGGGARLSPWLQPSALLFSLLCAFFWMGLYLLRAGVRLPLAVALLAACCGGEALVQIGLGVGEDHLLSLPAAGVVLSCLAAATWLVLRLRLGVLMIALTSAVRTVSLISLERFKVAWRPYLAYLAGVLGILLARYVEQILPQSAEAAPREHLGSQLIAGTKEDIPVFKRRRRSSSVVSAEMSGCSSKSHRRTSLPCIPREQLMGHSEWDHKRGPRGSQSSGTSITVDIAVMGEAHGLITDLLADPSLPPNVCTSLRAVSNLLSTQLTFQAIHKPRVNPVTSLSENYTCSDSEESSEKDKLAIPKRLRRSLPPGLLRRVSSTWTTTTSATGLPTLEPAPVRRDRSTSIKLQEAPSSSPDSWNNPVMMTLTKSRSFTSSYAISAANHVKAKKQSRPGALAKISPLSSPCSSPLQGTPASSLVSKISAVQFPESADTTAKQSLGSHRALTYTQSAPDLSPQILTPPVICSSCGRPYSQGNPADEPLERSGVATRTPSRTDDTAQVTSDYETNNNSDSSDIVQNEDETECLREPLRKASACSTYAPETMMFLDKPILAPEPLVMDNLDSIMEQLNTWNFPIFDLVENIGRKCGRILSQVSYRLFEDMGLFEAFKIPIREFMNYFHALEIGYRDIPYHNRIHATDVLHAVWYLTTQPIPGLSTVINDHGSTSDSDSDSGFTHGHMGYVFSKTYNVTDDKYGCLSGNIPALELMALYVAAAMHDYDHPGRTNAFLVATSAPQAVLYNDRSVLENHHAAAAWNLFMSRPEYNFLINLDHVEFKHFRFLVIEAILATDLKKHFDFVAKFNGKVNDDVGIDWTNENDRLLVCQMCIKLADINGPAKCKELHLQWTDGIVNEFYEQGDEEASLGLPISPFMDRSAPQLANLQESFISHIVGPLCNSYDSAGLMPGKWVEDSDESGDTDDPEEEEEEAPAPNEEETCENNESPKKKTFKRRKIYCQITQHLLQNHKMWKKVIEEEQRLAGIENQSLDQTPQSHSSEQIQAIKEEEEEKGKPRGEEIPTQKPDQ

Take `CCN(CC)c1ccc(C2=NNC(=O)CC2C)cc1[N+](=O)[O-]` (stereo not shown) [DNMDP, 6-(4-(diethylamino)-3-nitrophenyl)-5-methyl-4,5-dihydropyridazin-3(2H)-one]: the “rescue of toxicity by PDE3A sgRNA2 and sgRNA3” value in the assay with HeLa cells [1] is reported as “significant rescue of toxicity”. The PARP cleavage result with HeLa cells [2] is on record as “detected”. For the same compound, the inhibition at 0.1 µM on PDE3A [3] (read-out: % inhibition) was 95%; at PDE3A [3] (replicate #1, read-out: % inh. #1), 95%; on PDE3A [3] (replicate #2, read-out: % inh. #2), 95%. In addition, on 234 kinases, the kinase inhibition result was “no kinase inhibition”. For the same compound, the “sensitivity of A549 cells upon expression of SLFN12” value in the assay on A549 cells [4] is recorded as “sufficient to confer DNMDP sensitivity”. In addition, the “toxicity in dose-response analysis” value in the assay on NCI-H1734 cells was “specifically toxic”. The “effect on cell viability” value in the assay on A549 cells [5] is recorded as “did not affect cell viability”.

For the compound `COc1cc2c(cc1OC)-c1c/c(=N\c3c(C)cc(C)cc3C)n(C)c(=O)n1CC2` [trequinsin, 9,10-dimethoxy-3-methyl-2-(2,4,6-trimethylphenyl)imino-6,7-dihydropyrimido[6,1-a]isoquinolin-4-one], the “blocking of binding of PDE3A to the tethered linker analogue” value on PDE3A [6] is “blocked”.
